These results are taken from patent US8084424B2, “Compositions and methods related to erythropoietin” (University of Utah Research Foundation, priority 2003, dated 2011).

Where a SMILES comes first, the peptide text is derived from it. [ ]: non-standard residue; d: D form. The star is where a group is joined. Sta = CC(C)C[C@H](N)[C@@H](O)CC(=O)O; Isovaleryl = CC(C)CC(=O)*

One series relates to proteases. The series is described as follows: Protease inhibitor test: EPO degradation in concentrated medium at pH5.0, assayed by RIA. Type of series: biochemical. The settings on record: pH5.0, 37° C. The protocol:
Protease inhibitors can also be added to the conditioned medium in order to improve EPO yields. Several commercially available protease inhibitors were tested to see if they could prevent EPO degradation at pH5.0. 10× concentrated (Step 1) EPO medium was diluted 1:10 in 50 mM Na Acetate, pH5.0 and then incubated at 37° C. with or without protease inhibitors at a concentration of 5 micrograms/ml. Aliquots were taken over a period of 29 hours and assayed by RIA. […] Pepstatin was then tested to determine the minimum concentration at which it is effective. Under the same conditions as described above, pepstatin was included into 10× concentrated medium over range of 0.0005 to 1 ug/ml and incubated at 37° C. for 25 hours. […] To test the effect of pepstatin in the purification process, 0.2 ug/ml of pepstatin was added to the 10× concentrated medium and to the buffers for the S-Sepharose column. Under these conditions, 97% of EPO was recovered from the S-Sepharose Fast Flow column compared to approximately 60% without the use of a protease inhibitor.

The test system of a further series is interstitial cells. The series is described as follows: Interstitial cell proliferation in rat kidney (3H-thymidine histoautoradiography, hematoxylin and eosin staining). It counts as in vivo.
The next series has as its system kidney. As to the kind of experiment: Renal histology: apoptosis, Trichrome staining for fibrosis, Vimetin immunostaining. From the text:
The immunohistochemical methods are standard and routinely used in many research and clinical labs.

In the next series the test system is renal cortex. As to the kind of experiment: Angiogenesis in the renal cortex. It counts as in vivo. The settings on record: treated rat kidney.
Series [1] concerns lysosomal enzymes (hexoseaminidase, cathepsin B, acid sphigomyelinase, and sulfatase B). The series is described as follows: Lysosomal enzyme activities in kidney cortex after injection. It counts as in vivo, rat. The settings on record: one day after injection, not acid phosphatase. The text has this:
(§1) The mechanism of Poly-D-Glu-induced acute lysosomal storage condition in proximal tubular cells was addressed.

Series [2] can be described thus: Aggregation and ionisation of Poly-D-glutamic acid in solution. It counts as physicochemical. The settings on record: 10 mg/ml, solution at pH≦6.
Source text: as §1

Series [3] in a line: 24 hour urine volume and urine osmolality. The settings on record: pre versus post treatment, versus saline.
In another series the test system is erythropoietin. The series is described as follows: Immunohistochemical staining of kidney sections for erythropoietin. Type of series: in vivo, rat. The settings on record: for erythropoietin staining of proliferating interstitial cells: 250 mg/kg/day sc for 4 days, euthanized on day 5; for EPO-producing peritubular cells after cessation of treatment: 6 days after the cessation of a 4-day treatment, 250 mg/kg/day. The method, then: Male Sprague-Dawley rats were divided randomly into two groups. […] Kidneys were harvested quickly from the dead rats and one half of one kidney was immersed in 10% neutral buffered formalin. The formalin fixed kidneys were dehydrated and embedded in paraffin. Sections of 3 to 4 μM thickness were cut on a microtome. Sections were deparaffinized by standard methods and processed for immunohistochemical staining for CD73 (5′-nucleotidase) and erythropoietin (Epo) as described below.
Deparaffinized kidney sections were treated for exposure of antigenic sites and blocked for non-specific binding by standard methods. Following this they were incubated with specific antibodies to CD 73 (marker for resident fibroblasts in kidney) or Epo. Goat polyclonal antibodies to CD73 and Epo were purchased from the Santa Cruz Biotechnology, Santa Cruz, Calif. They were used at a dilution of 1:50. After washing off the unreacted primary antibodies, the sections were incubated with biotinylated anti-goat polyclonal antibody (secondary antibody), followed by incubation with avidin-biotin complex. Sections were then washed and incubated with substrate to visualize the antigen-antibody reactions. Positive labeling in the sections is seen as brownish color. […] Sections were examined under a Reichert Microscope and digital images were captured using a Nikon Coolpix 0995 Digital Camera.

Method for interstitial cells: Sprague-Dawley rats of both sexes, weighing from 180 to 200 g, were used throughout the study. A few days before the experiment, rats were adapted to the housing conditions in a central animal facility (regular 12 hours light/dark cycles, free access to standard rat chow and tap water). […] For histoautoradiographic studies, some treated animals and controls were further injected with 300 μCi of [methyl-^3H]-thymidine intraperitoneally 1 hour before their deaths.
One half of the right kidney was immersed in Boulin solution and processed for paraffin sections (approximately 5-μm thickness) destined for histopathologic and/or histoautoradiographic study. For histopathologic use, sections were stained with hematoxylin and eosin with or without periodic acid-Schiff reagent or with Giemsa stain. Histoautoradiographic studies were performed and the data were presented as described earlier (Kishore et al., 1992; Laurent et al., 1983). Briefly each section was examined along parallel straight lines, extending from the subcapsular to the juxtamedullary region. The number of total and labeled nuclei (S-phase cells) were counted, and the corresponding cell type was identified.
Histoautoradiographic labeling indices were subjected to ANOVA, and the significance of the F value was determined. […]

Take `CC(C)CC(=O)N[C@H](C(=O)N[C@H](C(=O)N[C@@H](CC(C)C)[C@@H](O)CC(=O)N[C@@H](C)C(=O)N[C@@H](CC(C)C)[C@@H](O)CC(=O)O)C(C)C)C(C)C` [Pepstatin] (Isovaleryl-VV[Sta]A[Sta]-OH): the “effect on EPO immunoactivity” value in the series on proteases (5 micrograms/ml, over 29 hours, RIA) is recorded as “significant stabilizing effect”. The “IC50 (the concentration at which 50% of the proteases are inhibited)” value with proteases (10× concentrated medium, 25 hours, range 0.0005 to 1 ug/ml) is “approximately 0.02 ug/ml”.

In the case of Poly-D-glutamic acid, the “significant proliferative response of peritubular cells (3H-thymidine incorporation)” value with interstitial cells (7 days after the cessation of treatment, earlier studies) is listed as “could not be observed”. Moreover, the “interstitial cell labeling (3H-thymidine)” value with interstitial cells (female rats treated for 2 days, versus saline) was “considerably increased”. Moreover, the “mesenchymal changes (Vimetin immunostaining)” value with kidney (rat, in vivo) is “detectable mesenchymal changes”. The “fibrotic changes in the kidney (Trichrome staining)” value with kidney (versus saline) is “not much fibrotic reaction”. In the series with renal cortex, the “angiogenesis in the renal cortex” value is listed as “angiogenesis”. Moreover, the “activities of several lysosomal enzymes in the kidney cortex” value in series [1] was “increased”. Moreover, the “size of micronic aggregates formed” value in series [2] is reported as ≥ 10 μm. In addition, in series [3], the “ability of kidneys to concentrate urine as assessed by urine osmolality” value is “does not cause marked abnormalities”. Moreover, the “erythropoietin staining of proliferating interstitial cells” value in the series with erythropoietin (listed as Poly-D-Glu) is “labeled with EPO antibody”; in the series on erythropoietin (listed as poly-D-glutamic acid), “strongly stain”. For the same molecule, the “EPO-producing peritubular cells after cessation of treatment” value is “persistence” in the series with erythropoietin and “consistent labeling” in the series with erythropoietin (listed as Poly-D-Glu).
